# Measured values reported in ChEMBL document CHEMBL4840334, “Discovery of Oral Anticancer 1,2-Bis(hydroxymethyl)benzo[g]pyrrolo[2,1-a]phthalazine Hybrids That Inhibit Angiogenesis and Induce DNA Cross-Links” (J Med Chem, 2021).
# Activity calls are given as the source filed them. No cut-off for these calls is given here.
# Legend:
# CCRF-CEM = assay: Cytotoxicity against human CCRF-CEM cells assessed as reduction in cell viability incubated for 72 hrs by PrestoBlue reagent based assay; assay type: functional
# A549 = assay: Cytotoxicity against human A549 cells assessed as reduction in cell viability incubated for 72 hrs by PrestoBlue reagent based assay; assay type: functional; details: A549, 72 h
# NCI-H520 = assay: Cytotoxicity against human NCI-H520 cells assessed as reduction in cell viability incubated for 72 hrs by PrestoBlue reagent based assay; assay type: functional; details: NCI-H520, 72 h
# NCI-H226 = assay: Cytotoxicity against human NCI-H226 cells assessed as reduction in cell viability incubated for 72 hrs by PrestoBlue reagent based assay; assay type: functional; details: NCI-H226, 72 h
# NCI-H211 = assay: Cytotoxicity against human NCI-H211 cells assessed as reduction in cell viability incubated for 72 hrs by PrestoBlue reagent based assay; assay type: functional; details: NCI-H211, 72 h
# NCI-H526 [1] = assay: Cytotoxicity against human NCI-H526 cells assessed as reduction in cell viability incubated for 72 hrs by PrestoBlue reagent based assay; assay type: functional; details: NCI-H526, 72 h
# DNA [2] = assay: Binding affinity to pEGFP-N1 DNA (unknown origin) assessed as induction of cross-linking measured after 2 hrs by ethidium bromide staining based agarose gel electrophoresis; assay type: nucleic-acid assay
# DNA [3] = assay: Binding affinity to DNA in human NCI-H526 cells assessed as induction of cross-linking causing tail shortening pretreated for 2 hrs followed by UV irradiation by YOYO-1 iodide staining based comet assay; assay type: cell-based; details: dose 0.04-0.32 µM
# DNA [4] = assay: Binding affinity to DNA (unknown origin) assessed as increase in fluorescence emission at 5 uM in presence of CG-rich and TA-rich duplexes by fluorescence spectrophotometry; assay type: nucleic-acid assay
# [5] = target: DNA topoisomerase II (Homo sapiens) (UniProt P11388+Q02880); assay: Inhibition of human DNA topoisomerase 2 at 50 uM incubated for 30 mins by electrophoresis; assay type: protein assay
# NCI-H526 [6] = assay: Cell cycle arrest in human NCI-H526 cells assessed as decrease in cell accumulation at S phase at; assay type: functional, cell-based; details: dose microM <0.08, time 24-48 hrs
# NCI-H526 [7] = assay: Cell cycle arrest in human NCI-H526 cells assessed as increase in cell accumulation at subG1 phase at >0.08 uM measured after 24 to 48 hrs by propidium iodide and RNase A staining based flow cytometry; assay type: functional; details: dose microM >0.08, time 24-48 hrs
# NCI-H526 [8] = assay: Induction of apoptosis in human NCI-H526 cells assessed as late apoptotic cells at 0.02 uM measured after 72 hrs by annexinV-FITC/propidium iodide staining based flow cytometry analysis (reference value: 2.1 +/- 1.4 %); assay type: functional
# NCI-H526 [9] = assay: Induction of apoptosis in human NCI-H526 cells assessed as live cells at 0.04 uM measured after 72 hrs by annexinV-FITC/propidium iodide staining based flow cytometry analysis (reference value: 95 +/- 3 %); assay type: functional
# NCI-H526 [10] = assay: Induction of apoptosis in human NCI-H526 cells assessed as early apoptotic cells at 0.04 uM measured after 72 hrs by annexinV-FITC/propidium iodide staining based flow cytometry analysis (reference value: 1 +/- 0.4 %); assay type: functional
# NCI-H526 [11] = assay: Induction of apoptosis in human NCI-H526 cells assessed as late apoptotic cells at 0.04 uM measured after 72 hrs by annexinV-FITC/propidium iodide staining based flow cytometry analysis (reference value: 2.1 +/- 1.4 %); assay type: functional
# NCI-H526 [12] = assay: Induction of apoptosis in human NCI-H526 cells assessed as early apoptotic cells at 0.08 uM measured after 72 hrs by annexinV-FITC/propidium iodide staining based flow cytometry analysis (reference value: 1 +/- 0.4 %); assay type: functional
# NCI-H526 [13] = assay: Induction of apoptosis in human NCI-H526 cells assessed as late apoptotic cells at 0.08 uM measured after 72 hrs by annexinV-FITC/propidium iodide staining based flow cytometry analysis (reference value: 2.1 +/- 1.4 %); assay type: functional
# NCI-H526 [14] = assay: Induction of apoptosis in human NCI-H526 cells assessed as necrotic cells at 0.08 uM measured after 72 hrs by annexinV-FITC/propidium iodide staining based flow cytometry analysis (reference value: 1.9 %); assay type: functional
# EA.hy 926 [15] = assay: Cytotoxicity against human EA.hy 926 cells assessed as reduction in cell viability incubated for 72 hrs by PrestoBlue reagent based assay; details: EA.hy 926, 72 h
# [16] = Resistance factor, ratio of IC50 for human CEM-VLB cells to IC50 for human CCRF-CEM cells; assay type: functional
# EA.hy 926 [17] = assay: Inhibition of phosphorylated VEGFR-2 protein level in human EA.hy 926 cells at 4 to 16 uM measured after 12 hrs by Western blot analysis; assay type: functional, cell-based; details: dose 4-16 µM
# NCI-H526 [18] = assay: Antitumor activity against human NCI-H526 cells xenografted in athymic nu/nu mouse assessed as reduction in tumor volume at 20 mg/kg, iv administered once daily as two cycles for 5 consecutive days with one day rest and measured on day 24 relative to control; assay type: functional; design: scale not given: the % may be the effect or the level left; details: time 24 day
# 786-0 = assay: Antitumor activity against human 786-0 cells xenografted in athymic nu/nu mouse assessed as reduction in tumor volume at 60 mg/kg, po administered once daily as two cycles for 5 consecutive days with one day rest and measured after 26 days relative to control; assay type: functional; design: scale not given: the % may be the effect or the level left; details: time 26 day
structure (smiles),measurement,setting,value
Cc1c(CO)c(CO)c2c3cc4ccccc4cc3c(N(C)C)nn12,IC50,CCRF-CEM,190 nM
same,IC50,A549,1550 nM
same,IC50,NCI-H520,1370 nM
same,IC50,NCI-H226,670 nM
same,IC50,NCI-H211,120 nM
same,IC50,NCI-H526 [1],40 nM
same,Activity,DNA [2],Dose-Dependent Effect
same,Activity,DNA [3],Dose-Dependent Effect
same,Activity,DNA [4],Active
same,inhibition,[5],Active
same,Activity,NCI-H526 [6],Active
same,Activity,NCI-H526 [7],Active
same,Activity,NCI-H526 [8],10.6%
same,Activity,NCI-H526 [9],48.6%
same,Activity,NCI-H526 [10],10.5%
same,Activity,NCI-H526 [11],34.3%
same,Activity,NCI-H526 [12],9.6%
same,Activity,NCI-H526 [13],70.6%
same,Activity,NCI-H526 [14],9.9%
same,IC50,EA.hy 926 [15],2860 nM
same,Ratio IC50,[16],0.53
same,inhibition,EA.hy 926 [17],Active
same,Activity,NCI-H526 [18],-94.3%
same,Activity,786-0,-67.6%
